Measurements: the supplement of paper PMC11061612

How the values were obtained:
Test in all cases: combination Emax (second highest fraction inhibited in the dose matrix, 72 h); higher = more inhibition; extreme values may be limits of the assay
[1] = system: OCI-AML2 (Acute Myeloid Leukemia)
Method in brief: (§1)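 After 24 hours at 37°C and 5% CO2 in 1536-well plates, cells in DMEM/F12 or RPMI plus 10% FBS received two-drug dose matrices for 72 hours. Viability came from CellTiter-Glo 2.0 luminescence and was scaled as inhibition, anchored at 0 by vehicle wells and at 1 by blank wells. Combination Emax is taken as the second-highest inhibition in the matrix, and Bliss excess as the observed combination effect less EA + EB − EA·EB, with EA and EB the single-agent effects.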

[2] = system: NALM-6 (B-Lymphoblastic Leukemia)
Method in brief: as §1

[3] = system: SW1990 (Pancreatic Carcinoma)
Method in brief: as §1

[4] = system: MDA-MB-231 (Breast Carcinoma)
Method in brief: as §1

[5] = system: COR-L23 (Non-Small Cell Lung Carcinoma)
Method in brief: as §1

SN12C (Kidney Carcinoma) = system: SN12C (Kidney Carcinoma)
Method in brief: as §1

[6] = system: C3A (Hepatocellular Carcinoma)
Method in brief: as §1

[7] = system: MFH-ino (Other Solid Carcinomas)
Method in brief: as §1

[8] = system: TGBC24TKB (Biliary Tract Carcinoma)
Method in brief: as §1

[9] = system: NCI-H1781 (Lung Adenocarcinoma)
Method in brief: as §1

SK-N-FI (Neuroblastoma) = system: SK-N-FI (Neuroblastoma)
Method in brief: as §1

[10] = system: DMS-273 (Small Cell Lung Carcinoma)
Method in brief: as §1

[11] = system: 697 (B-Lymphoblastic Leukemia)
Method in brief: as §1

[12] = system: LU-99A (Non-Small Cell Lung Carcinoma)
Method in brief: as §1

[13] = system: SW1088 (Low Grade Glioma)
Method in brief: as §1

[14] = system: NCI-H1299 (Non-Small Cell Lung Carcinoma)
Method in brief: as §1

[15] = system: HCC2157 (Breast Carcinoma)
Method in brief: as §1

J82 (Bladder Carcinoma) = system: J82 (Bladder Carcinoma)
Method in brief: as §1

[16] = system: IHH-4 (Thyroid Gland Carcinoma)
Method in brief: as §1

[17] = system: CFPAC-1 (Pancreatic Carcinoma)
Method in brief: as §1

Row | Compound | combination Emax [1] | combination Emax [2] | combination Emax [3] | combination Emax [4] | combination Emax [5] | combination Emax (SN12C (Kidney Carcinoma)) | combination Emax [6] | combination Emax [7] | combination Emax [8] | combination Emax [9] | combination Emax (SK-N-FI (Neuroblastoma)) | combination Emax [10] | combination Emax [11] | combination Emax [12] | combination Emax [13] | combination Emax [14] | combination Emax [15] | combination Emax (J82 (Bladder Carcinoma)) | combination Emax [16] | combination Emax [17]
1 | CN(C)CCCOc1ccc(-c2ccc3ncc4c(c3c2)n(C2CCOCC2)c(=O)n4C)cn1 [AZD0156] + C=CCn1c(=O)c2cnc(Nc3ccc(N4CCN(C)CC4)cc3)nc2n1-c1cccc(C(C)(C)O)n1 [AZD1775] (first compound max 1 µM, partner max 1 µM) | 0.97 | 0.906 | 0.483 | 0.374 | 0.298 | 0.242 | 0.524 | 0.169 | 0.677 | 0.43 | 0.722 | 0.589 | 1 | 0.677 | 0.425 | 0.742 | 0.832 | 0.333 | 0.821 | 0.473
2 | Cc1cc2ncnn2cc1Nc1ncc2c(n1)n(C1CCOCC1)c(=O)n2C [AZD7648] + C=CCn1c(=O)c2cnc(Nc3ccc(N4CCN(C)CC4)cc3)nc2n1-c1cccc(C(C)(C)O)n1 [AZD1775] (first compound max 10 µM, partner max 1 µM) | 0.986 | 0.898 | 0.467 | 0.434 | 0.36 | 0.313 | 0.521 | 0.39 | 0.786 | 0.482 | 0.591 | 0.611 | 1 | 0.563 | 0.504 | 0.72 | 0.899 | 0.244 | 0.802 | 0.444
3 | COc1cccc(OCCCN)c1-c1cc(Nc2cnc(C#N)cn2)n[nH]1 [Prexasertib] + C=CCn1c(=O)c2cnc(Nc3ccc(N4CCN(C)CC4)cc3)nc2n1-c1cccc(C(C)(C)O)n1 [AZD1775] (first compound max 1 µM, partner max 1 µM) | 1 | 0.934 | 0.688 | 0.9 | 0.652 | 0.608 | 0.674 | 0.397 | 0.896 | 0.736 | 0.862 | 0.984 | 1 | 0.806 | 0.848 | 0.799 | 1 | 0.577 | 0.99 | 0.692
4 | CCN(CCO)CCCOc1ccc2c(Nc3cc(CC(=O)Nc4cccc(F)c4)[nH]n3)ncnc2c1 [AZD2811] + C=CCn1c(=O)c2cnc(Nc3ccc(N4CCN(C)CC4)cc3)nc2n1-c1cccc(C(C)(C)O)n1 [AZD1775] (first compound max 1 µM, partner max 1 µM) | 0.991 | 0.915 | 0.458 | 0.394 | 0.349 | 0.175 | 0.421 | 0.183 | 0.651 | 0.819 | 0.666 | 0.827 | 1 | 0.585 | 0.47 | 0.763 | 0.854 | 0.315 | 0.667 | 0.372
5 | CC(=O)c1c(C)c2cnc(Nc3ccc(N4CCNCC4)cn3)nc2n(C2CCCC2)c1=O [Palbociclib] + Cn1cnc2c(F)c(Nc3ccc(Br)cc3Cl)c(C(=O)NOCCO)cc21 [Selumetinib] (first compound max 10 µM, 7x7, partner max 10 µM) | 1 | 0.876 | 0.334 | 0.64 | 0.327 | 0.283 | 0.556 | 0.429 | 0.429 | 0.235 | 0.531 | 0.351 | 0.833 | 0.542 | 0.358 | 0.463 | 0.394 | 0.138 | 0.59 | 0.411
6 | Cc1nc(Nc2ncc(C(=O)Nc3c(C)cccc3Cl)s2)cc(N2CCN(CCO)CC2)n1 [Dasatinib] + CC(=O)Nc1cccc(-n2c(=O)n(C3CC3)c(=O)c3c(Nc4ccc(I)cc4F)n(C)c(=O)c(C)c32)c1 [Trametinib] (first compound max 2 µM, 7x7, partner max 1 µM) | 1 | 0.621 | 0.399 | 0.832 | 0.85 | 0.455 | 0.577 | 0.513 | 0.736 | 0.34 | 0.757 | 0.323 | 0.708 | 0.943 | 0.666 | 0.795 | 0.423 | 0.276 | 0.896 | 0.847
